Experimental data reported in article PMC3458792 (Neuron, 2012).
Positions count from the first letter of the chain named.

Experiments:
Type in all cases: cell-based
[1] = target: GLR-1, STG-2, SOL-1 and SOL-2 (Caenorhabditis elegans, UniProt P34299, Q552Y); test: two-electrode voltage clamp, Xenopus oocytes, agonist-gated current; details: 1 mM glutamate
[2] = target: GLR-1, STG-1, SOL-1 and SOL-2 (Caenorhabditis elegans, UniProt P34299); test: patch clamp of C. elegans muscle cells; details: -60 mV
Sequence of GLR-1, STG-1, SOL-1 and SOL-2 (P34299 26-962, one chain of several): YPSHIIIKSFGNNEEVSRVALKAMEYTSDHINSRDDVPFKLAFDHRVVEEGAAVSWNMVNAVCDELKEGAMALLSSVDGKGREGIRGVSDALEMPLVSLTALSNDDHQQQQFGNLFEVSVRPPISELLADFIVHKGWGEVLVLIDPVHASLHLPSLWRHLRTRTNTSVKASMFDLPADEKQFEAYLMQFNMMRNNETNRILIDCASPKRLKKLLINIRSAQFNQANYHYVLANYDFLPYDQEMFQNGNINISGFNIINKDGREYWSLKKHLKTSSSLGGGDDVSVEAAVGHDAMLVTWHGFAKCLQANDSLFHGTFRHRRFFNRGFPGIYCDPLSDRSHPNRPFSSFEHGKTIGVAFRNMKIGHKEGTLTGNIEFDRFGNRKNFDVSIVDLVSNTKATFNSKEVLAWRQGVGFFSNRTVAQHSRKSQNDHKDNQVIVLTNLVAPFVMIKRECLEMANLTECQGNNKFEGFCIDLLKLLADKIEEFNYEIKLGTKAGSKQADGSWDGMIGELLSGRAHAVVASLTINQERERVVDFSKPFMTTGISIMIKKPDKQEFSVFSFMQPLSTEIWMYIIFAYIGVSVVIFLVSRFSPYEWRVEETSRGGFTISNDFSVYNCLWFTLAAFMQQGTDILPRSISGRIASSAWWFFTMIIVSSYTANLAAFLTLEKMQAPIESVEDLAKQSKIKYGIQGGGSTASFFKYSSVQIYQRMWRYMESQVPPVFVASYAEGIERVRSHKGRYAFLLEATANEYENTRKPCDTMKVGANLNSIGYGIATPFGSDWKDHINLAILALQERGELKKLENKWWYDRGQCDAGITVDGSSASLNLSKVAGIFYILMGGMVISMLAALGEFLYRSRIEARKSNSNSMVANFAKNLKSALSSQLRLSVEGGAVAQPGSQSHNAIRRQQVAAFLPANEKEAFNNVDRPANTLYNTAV
Sequence of GLR-1, STG-1, SOL-1 and SOL-2 (Q9XUU2 19-436 partner, one chain of several): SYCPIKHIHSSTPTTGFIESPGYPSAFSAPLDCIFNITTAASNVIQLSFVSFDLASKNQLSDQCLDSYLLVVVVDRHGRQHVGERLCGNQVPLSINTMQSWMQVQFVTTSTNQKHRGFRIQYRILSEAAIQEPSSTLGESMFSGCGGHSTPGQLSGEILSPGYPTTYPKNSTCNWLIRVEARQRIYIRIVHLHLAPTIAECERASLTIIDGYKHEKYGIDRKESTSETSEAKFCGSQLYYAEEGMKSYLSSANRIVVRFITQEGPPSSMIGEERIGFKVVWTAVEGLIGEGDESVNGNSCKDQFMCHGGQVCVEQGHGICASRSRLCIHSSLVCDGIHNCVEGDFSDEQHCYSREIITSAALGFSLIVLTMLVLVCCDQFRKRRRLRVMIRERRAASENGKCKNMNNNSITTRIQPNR

[3] = target: GLR-1, STG-2, SOL-1 and SOL-2 (Caenorhabditis elegans, UniProt P34299); test: two-electrode voltage clamp, Xenopus oocytes, agonist-gated current
Sequence of GLR-1, STG-2, SOL-1 and SOL-2 (Caenorhabditis elegans, UniProt P34299) (P34299 26-962, one chain of several): as the sequence (P34299 26-962, one chain of several) above
Sequence of GLR-1, STG-2, SOL-1 and SOL-2 (Caenorhabditis elegans, UniProt P34299) (Q9XUU2 19-436 partner, one chain of several): as the sequence (Q9XUU2 19-436 partner, one chain of several) above

GLR-1, STG-2 and SOL-1 [4] = target: T1, GLR-1, STG-2 and SOL-1 (Caenorhabditis elegans, UniProt P34299, Q552Y); test: as above; details: 1 mM glutamate
T1 sequence (P34299 26-962 Q552Y): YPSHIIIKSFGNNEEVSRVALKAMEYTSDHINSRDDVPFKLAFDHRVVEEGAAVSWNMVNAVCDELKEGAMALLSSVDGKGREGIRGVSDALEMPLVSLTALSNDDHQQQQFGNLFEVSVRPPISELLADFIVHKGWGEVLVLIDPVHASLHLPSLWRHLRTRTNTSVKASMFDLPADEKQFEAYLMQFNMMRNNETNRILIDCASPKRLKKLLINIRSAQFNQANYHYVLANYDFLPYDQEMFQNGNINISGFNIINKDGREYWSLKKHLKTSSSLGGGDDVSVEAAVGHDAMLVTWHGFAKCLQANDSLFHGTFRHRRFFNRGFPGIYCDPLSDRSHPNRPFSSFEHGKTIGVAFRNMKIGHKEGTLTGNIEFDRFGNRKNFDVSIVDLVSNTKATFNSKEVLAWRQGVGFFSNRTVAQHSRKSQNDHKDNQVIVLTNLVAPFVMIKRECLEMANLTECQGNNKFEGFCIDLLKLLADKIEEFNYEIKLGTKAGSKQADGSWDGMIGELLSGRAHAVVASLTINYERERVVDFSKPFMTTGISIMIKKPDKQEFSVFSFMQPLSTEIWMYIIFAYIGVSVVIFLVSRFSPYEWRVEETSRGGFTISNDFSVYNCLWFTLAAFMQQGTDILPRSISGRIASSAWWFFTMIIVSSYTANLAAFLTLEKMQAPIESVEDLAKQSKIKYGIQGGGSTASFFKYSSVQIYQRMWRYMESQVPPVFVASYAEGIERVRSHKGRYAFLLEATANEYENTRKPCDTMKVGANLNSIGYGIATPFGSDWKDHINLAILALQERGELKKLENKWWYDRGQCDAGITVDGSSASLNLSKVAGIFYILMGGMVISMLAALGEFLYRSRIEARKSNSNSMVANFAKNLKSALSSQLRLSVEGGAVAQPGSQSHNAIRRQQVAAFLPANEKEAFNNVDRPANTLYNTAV
T1 sequence (G5EBI8 1-357 partner): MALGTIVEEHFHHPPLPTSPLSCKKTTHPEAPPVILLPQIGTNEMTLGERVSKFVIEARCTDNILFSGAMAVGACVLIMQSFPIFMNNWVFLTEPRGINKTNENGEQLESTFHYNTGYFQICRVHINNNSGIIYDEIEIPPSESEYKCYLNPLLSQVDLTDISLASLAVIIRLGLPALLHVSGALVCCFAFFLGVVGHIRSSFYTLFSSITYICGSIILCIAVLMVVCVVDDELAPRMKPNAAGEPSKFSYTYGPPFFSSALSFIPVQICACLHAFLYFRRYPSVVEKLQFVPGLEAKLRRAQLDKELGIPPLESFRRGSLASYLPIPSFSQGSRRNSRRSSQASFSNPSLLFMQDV
T1 sequence (Q93212 24-594 partner): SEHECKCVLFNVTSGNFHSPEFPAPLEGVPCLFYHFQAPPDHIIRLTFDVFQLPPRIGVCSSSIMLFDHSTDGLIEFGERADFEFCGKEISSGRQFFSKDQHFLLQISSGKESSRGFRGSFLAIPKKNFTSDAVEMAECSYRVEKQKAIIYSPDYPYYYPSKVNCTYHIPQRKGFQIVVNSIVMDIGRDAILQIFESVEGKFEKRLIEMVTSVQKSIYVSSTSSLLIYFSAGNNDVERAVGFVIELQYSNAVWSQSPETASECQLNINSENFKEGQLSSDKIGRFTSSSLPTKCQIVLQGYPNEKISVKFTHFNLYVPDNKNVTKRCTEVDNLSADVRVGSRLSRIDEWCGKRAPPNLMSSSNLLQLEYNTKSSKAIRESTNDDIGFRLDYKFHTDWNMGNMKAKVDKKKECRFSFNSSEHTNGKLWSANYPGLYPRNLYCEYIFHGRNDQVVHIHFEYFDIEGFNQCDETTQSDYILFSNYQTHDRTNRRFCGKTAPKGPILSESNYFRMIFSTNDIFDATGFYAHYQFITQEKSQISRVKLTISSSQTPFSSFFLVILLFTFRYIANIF

GLR-1, STG-2 and SOL-1 [5] = target: T2, GLR-1, STG-2 and SOL-1 (Caenorhabditis elegans, UniProt P34299); test: as above
T2 sequence (P34299 26-962): T1 sequence (P34299 26-962 Q552Y) with Y527Q
T2 sequence (G5EBI8 1-357 partner): T1 sequence (G5EBI8 1-357 partner)
T2 sequence (Q93212 24-594 partner): T1 sequence (Q93212 24-594 partner)

GLR-1, STG-1 and SOL-1 = target: T3, GLR-1, STG-1 and SOL-1 (Caenorhabditis elegans, UniProt P34299); test: patch clamp of C. elegans muscle cells; details: 100 μM kainate; -60 mV; partial agonist
T3 sequence (P34299 26-962): T1 sequence (P34299 26-962 Q552Y) with Y527Q
T3 sequence (Q15KL0 1-366 partner): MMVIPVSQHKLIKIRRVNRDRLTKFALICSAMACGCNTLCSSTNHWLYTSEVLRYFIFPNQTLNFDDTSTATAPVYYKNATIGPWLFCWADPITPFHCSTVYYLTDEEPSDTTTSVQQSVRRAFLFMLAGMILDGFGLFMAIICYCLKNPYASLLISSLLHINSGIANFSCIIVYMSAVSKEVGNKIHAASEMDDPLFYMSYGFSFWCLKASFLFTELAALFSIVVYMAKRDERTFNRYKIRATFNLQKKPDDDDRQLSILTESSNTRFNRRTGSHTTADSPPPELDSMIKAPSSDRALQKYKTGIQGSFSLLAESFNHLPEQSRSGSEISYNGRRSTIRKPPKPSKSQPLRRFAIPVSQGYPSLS
T3 sequence (Q93212 24-594 partner): T1 sequence (Q93212 24-594 partner)

[6] = 100 μM kainate, partial agonist

Sequence of GLR-1, STG-2, SOL-1 and SOL-2 (Caenorhabditis elegans, UniProt P34299, Q552Y) (Q9XUU2 19-436 partner, one chain of several): as the sequence (Q9XUU2 19-436 partner, one chain of several) above

For `N[C@@H](CCC(=O)O)C(=O)O` [Glu, glutamate], the “two-electrode voltage clamp, Xenopus oocytes, agonist-gated current” value (“two-electrode voltage clamp” for short) [1] was “there was considerable desensitization when SOL-2 was co-expressed”, the “patch clamp of C. elegans muscle cells” value ([2]; 3 mM glutamate, agonist) was “glutamate-gated currents of approximately the same magnitude and kinetics in transgenic muscles” and the “two-electrode voltage clamp” value ([3]; 1 mM glutamate, agonist) was “We recorded both glutamate- and kainate-gated currents from oocytes”. For the same compound, the “two-electrode voltage clamp” value (GLR-1, STG-2 and SOL-1 [4]) was “glutamate-gated current recorded from Xenopus oocytes that expressed GLR-1(Q552Y), STG-2, and SOL-1 did not desensitize” and the “two-electrode voltage clamp” value (GLR-1, STG-2 and SOL-1 [5]; 1 mM glutamate, agonist) was “We recorded both glutamate- and kainate-gated currents from oocytes”.

For `C=C(C)[C@H]1CN[C@H](C(=O)O)[C@H]1CC(=O)O` [KA, kainate], the “patch clamp of C. elegans muscle cells” value [2, 6] was “the presence of SOL-2 markedly reduced the magnitude of the kainate-gated current”, the “two-electrode voltage clamp” value [3, 6] was “The kainate-gated current appeared faster and smaller with co-expression of SOL-2” and the “patch clamp of C. elegans muscle cells” value (GLR-1, STG-1 and SOL-1) was “the presence of SOL-2 markedly reduced the magnitude of the kainate-gated current”. For the same compound, the “two-electrode voltage clamp” value (GLR-1, STG-2 and SOL-1 [5]; [6]) was “We recorded both glutamate- and kainate-gated currents from oocytes”.
